Experiments:
Type in all cases: biochemical
[1] = Dose–response curve of purified […]s with tyrosine
Description: (§1) Fig. 4 Engineering ligand specificity of GrsA-PheA for generating […]s. a The selectivity-conferring code of Phe and Leu A domains. b–f Dose–response curve of purified […]s with increasing concentrations of ligands in 100 mM Tris-HCl buffer (pH=7.5). All data shown are means ± S.D. (n = 3 biologically independent samples). g A series of […] reactions was tested to show the […]’s specificity with 20 proteinogenic amino acids. The values on the heatmap represent the ΔF/F0 value normalized to each […]’s maximal ΔF/F0 value ((ΔF/F0)/maximal ΔF/F0). The concentrations of 20 amino acids were 100 μM. The color indicates the average value of three independent biological replicates after 15 min. All data shown are means ± S.D. (n = 3 biologically independent samples). Source data are provided as a Source data file.
(§2) The study conducted dose–response curve, substrate specificity, and fluorescent spectrum analyses in 100-mM Tris buffer (pH = 7.5), while pH stability experiments were performed in 100-mM Tris buffer at three different pH values (6.5, 7.5, and 8.5) at room temperature. […] protein at a concentration of 0.75 μM, various small molecule concentrations, 1 mM ATP, and 2.5 mM MgCl2 were used in the experiments. Fluorescent signals were detected using a Microplate Reader (Synergy H4, Bio Tek) at an excitation/emission wavelength of 460 nm/510 nm or 480 nm/510 nm. The dose-response curve was determined immediately after the addition of the analyte. The total duration of the measurement was 15 min, with readings taken at one-minute intervals. The dose-response curve was plotted using the fluorescence values obtained after achieving stability in the fluorescence signal. The dose-response curves were fitted using the logistic model LOGISTIC5 available in Origin 2021, which could provide a more adequate fit to asymmetric dose-response data[62],[63]. Excitation spectra were scanned from 300 to 540 nm with a step size of 5 nm, and the emission wavelength was set to 560 nm. Emission spectra were scanned from 470 to 700 nm with a step size of 5 nm, and the excitation wavelength was set to 450 nm. The thermal stability of […] was analyzed using the UNcle multifunctional protein stability analysis system. Measurements were performed in 20 mM MOPS buffer with 2 mM DTT at a sample concentration of 1 mg/mL. Absolute fluorescence quantum yields were measured using an absolute photoluminescence quantum yield spectrometer (FS5, Edinburgh).

[2] = Substrate (ligand) specificity of […]s; conditions: for AVE of Repeat 1-3, sensor signal with ligand (Supplementary Fig. 7 c): 1 mM ligand, Control AVE 12117.3; for fluorescence response of GECFINDER to each substrate, AVE of 3 repeats: Supplementary Fig. 3 c, substrate specificity
Description: as §1
Ligand specificity is an important biosensors feature. Generally, the NRPS A domains have high specificity for their substrates because they are the first “gatekeeper” of NRPSs and ensure that the correct monomers are activated and thioesterified[32],[33]. Therefore, we speculated that this property would be inherited by our […]s because the ligand-binding pockets were unchanged during the […] creation process. Twenty proteinogenic amino acids were used to test the ligand specificity of […]s. […] We also investigated the dependence of […]s on Mg^2+ and ATP (Supplementary Fig. 4). […] This phenomenon corroborates with the distinct conformational changes observed in Hinge A of Nt4CL2 (Mg^2++ATP) (PDB ID: 5BSM) and Nt4CL2 (Coumaroyl-AMP) (PDB ID: 5BST) reported in the literature (Supplementary Fig. 4k), where the direction of motion in hinge A differs. […] During the determination of quantum yield, we observed that the absolute quantum yield of the […] variants ranged from 0.3 to 0.6 upon addition of the respective substrates, which show no significant difference with that reported in literature. The specific values are provided in Supplementary Table 2.
as §2

[3] = Dose–response curve of purified GECFINDERs with leucine
Description: as §1, §2

Structure (SMILES): N[C@@H](Cc1ccc(O)cc1)C(=O)O [Tyr]
- AVE, dose-response Fig. 4 b ([1]; substrate Tyr 0.5 μM): 7.517e-17
- AVE, dose-response Fig. 4 b ([1]; substrate Tyr 1 μM): 0.02259
- AVE, dose-response Fig. 4 b ([1]; substrate Tyr 5 μM): 0.05606
- AVE, dose-response Fig. 4 b ([1]; substrate Tyr 10 μM): 0.0659
- AVE, dose-response Fig. 4 b ([1]; substrate Tyr 20 μM): 0.09543
- AVE, dose-response Fig. 4 b ([1]; substrate Tyr 50 μM): 0.2237
- AVE, dose-response Fig. 4 b ([1]; substrate Tyr 100 μM): 0.3812
- AVE, dose-response Fig. 4 b ([1]; substrate Tyr 200 μM): 0.5926
- AVE, dose-response Fig. 4 b ([1]; substrate Tyr 250 μM): 0.6977
- AVE, dose-response Fig. 4 b ([1]; substrate Tyr 500 μM): 1.046
- AVE, dose-response Fig. 4 b ([1]; substrate Tyr 750 μM): 1.209
- AVE, dose-response Fig. 4 b ([1]; substrate Tyr 1000 μM): 1.242
- AVE, dose-response Fig. 4 e ([1]; substrate Tyr 0.1 μM): 0
- AVE, dose-response Fig. 4 e ([1]; substrate Tyr 0.2 μM): 0.01578
- AVE, dose-response Fig. 4 e ([1]; substrate Tyr 1 μM): 0.04154
- AVE, dose-response Fig. 4 e ([1]; substrate Tyr 2 μM): 0.05025
- AVE, dose-response Fig. 4 e ([1]; substrate Tyr 10 μM): 0.1198
- AVE, dose-response Fig. 4 e ([1]; substrate Tyr 20 μM): 0.1707
- AVE, dose-response Fig. 4 e ([1]; substrate Tyr 100 μM): 0.4124
- AVE, dose-response Fig. 4 e ([1]; substrate Tyr 200 μM): 0.5306
- AVE, dose-response Fig. 4 e ([1]; substrate Tyr 500 μM): 0.6788
- AVE, dose-response Fig. 4 e ([1]; substrate Tyr 1000 μM): 0.7749
- AVE, dose-response Fig. 4 e ([1]; substrate Tyr 1500 μM): 0.7754
- AVE, dose-response Fig. 4 e ([1]; substrate Tyr 2000 μM): 0.7447
- AVE of Repeat 1-3, sensor signal with ligand (Supplementary Fig. 7 c) [2]: 11224.3
- fluorescence response of GECFINDER to each substrate, AVE of 3 repeats [2]: -0.01776

Structure (SMILES): CC(C)C[C@H](N)C(=O)O [Leu]
- AVE, dose-response Fig. 4 b ([3]; substrate Leu 0.001 μM): -7.112e-17
- AVE, dose-response Fig. 4 b ([3]; substrate Leu 0.005 μM): 0.003877
- AVE, dose-response Fig. 4 b ([3]; substrate Leu 0.01 μM): 0.02311
- AVE, dose-response Fig. 4 b ([3]; substrate Leu 0.05 μM): 0.04234
- AVE, dose-response Fig. 4 b ([3]; substrate Leu 0.1 μM): 0.03637
- AVE, dose-response Fig. 4 b ([3]; substrate Leu 0.5 μM): 0.02815
- AVE, dose-response Fig. 4 b ([3]; substrate Leu 1 μM): 0.02962
- AVE, dose-response Fig. 4 b ([3]; substrate Leu 5 μM): 0.0138
- AVE, dose-response Fig. 4 b ([3]; substrate Leu 10 μM): 0.1049
- AVE, dose-response Fig. 4 b ([3]; substrate Leu 25 μM): 0.1731
- AVE, dose-response Fig. 4 b ([3]; substrate Leu 50 μM): 0.2052
- AVE, dose-response Fig. 4 b ([3]; substrate Leu 100 μM): 0.2136
- AVE, dose-response Fig. 4 c ([3]; substrate Leu 0.5 μM): 6.794e-17
- AVE, dose-response Fig. 4 c ([3]; substrate Leu 1 μM): 0.0405
- AVE, dose-response Fig. 4 c ([3]; substrate Leu 2 μM): 0.06186
- AVE, dose-response Fig. 4 c ([3]; substrate Leu 5 μM): 0.1266
- AVE, dose-response Fig. 4 c ([3]; substrate Leu 10 μM): 0.1121
- AVE, dose-response Fig. 4 c ([3]; substrate Leu 20 μM): 0.1733
- AVE, dose-response Fig. 4 c ([3]; substrate Leu 50 μM): 0.2857
- AVE, dose-response Fig. 4 c ([3]; substrate Leu 100 μM): 0.4006
- AVE, dose-response Fig. 4 c ([3]; substrate Leu 200 μM): 0.5877
- AVE, dose-response Fig. 4 c ([3]; substrate Leu 500 μM): 0.7587
- AVE, dose-response Fig. 4 c ([3]; substrate Leu 750 μM): 0.8241
- AVE, dose-response Fig. 4 c ([3]; substrate Leu 1000 μM): 0.7953
- AVE, dose-response Fig. 4 d ([3]; substrate Leu 0.005 μM): -5.262e-17
- AVE, dose-response Fig. 4 d ([3]; substrate Leu 0.01 μM): 0.03426
- AVE, dose-response Fig. 4 d ([3]; substrate Leu 0.1 μM): 0.06576
- AVE, dose-response Fig. 4 d ([3]; substrate Leu 1 μM): 0.08826
- AVE, dose-response Fig. 4 d ([3]; substrate Leu 5 μM): 0.1792
- AVE, dose-response Fig. 4 d ([3]; substrate Leu 10 μM): 0.2348
- AVE, dose-response Fig. 4 d ([3]; substrate Leu 50 μM): 0.4576
- AVE, dose-response Fig. 4 d ([3]; substrate Leu 100 μM): 0.5636
- AVE, dose-response Fig. 4 d ([3]; substrate Leu 200 μM): 0.7427
- AVE, dose-response Fig. 4 d ([3]; substrate Leu 500 μM): 0.9952
- AVE, dose-response Fig. 4 d ([3]; substrate Leu 750 μM): 1.079
- AVE, dose-response Fig. 4 d ([3]; substrate Leu 1000 μM): 1.107
- fluorescence response of GECFINDER, AVE of 3 repeats ([3]; Supplementary Fig. 3 a, Leu 0.001 μM): 0
- fluorescence response of GECFINDER, AVE of 3 repeats ([3]; Supplementary Fig. 3 a, Leu 0.005 μM): 0.02218
- fluorescence response of GECFINDER, AVE of 3 repeats ([3]; Supplementary Fig. 3 a, Leu 0.01 μM): 0.03478
- fluorescence response of GECFINDER, AVE of 3 repeats ([3]; Supplementary Fig. 3 a, Leu 0.1 μM): 0.05423
- fluorescence response of GECFINDER, AVE of 3 repeats ([3]; Supplementary Fig. 3 a, Leu 1 μM): 0.08086
- fluorescence response of GECFINDER, AVE of 3 repeats ([3]; Supplementary Fig. 3 a, Leu 10 μM): 0.1724
- fluorescence response of GECFINDER, AVE of 3 repeats ([3]; Supplementary Fig. 3 a, Leu 50 μM): 0.3353
- fluorescence response of GECFINDER, AVE of 3 repeats ([3]; Supplementary Fig. 3 a, Leu 100 μM): 0.4583
- fluorescence response of GECFINDER, AVE of 3 repeats ([3]; Supplementary Fig. 3 a, Leu 500 μM): 0.754
- fluorescence response of GECFINDER, AVE of 3 repeats ([3]; Supplementary Fig. 3 a, Leu 1000 μM): 0.8727
- fluorescence response of GECFINDER, AVE of 3 repeats ([3]; Supplementary Fig. 3 a, Leu 5000 μM): 1.081
- fluorescence response of GECFINDER, AVE of 3 repeats ([3]; Supplementary Fig. 3 a, Leu 10000 μM): 0.9665
- fluorescence response of GECFINDER, AVE of 3 repeats ([3]; Supplementary Fig. 3 b, Leu 0.001 μM): 4.279e-17
- fluorescence response of GECFINDER, AVE of 3 repeats ([3]; Supplementary Fig. 3 b, Leu 0.005 μM): 0.01278
- fluorescence response of GECFINDER, AVE of 3 repeats ([3]; Supplementary Fig. 3 b, Leu 0.01 μM): 0.01795
- fluorescence response of GECFINDER, AVE of 3 repeats ([3]; Supplementary Fig. 3 b, Leu 0.1 μM): 0.04976
- fluorescence response of GECFINDER, AVE of 3 repeats ([3]; Supplementary Fig. 3 b, Leu 1 μM): 0.111
- fluorescence response of GECFINDER, AVE of 3 repeats ([3]; Supplementary Fig. 3 b, Leu 10 μM): 0.3678
- fluorescence response of GECFINDER, AVE of 3 repeats ([3]; Supplementary Fig. 3 b, Leu 50 μM): 0.7094
- fluorescence response of GECFINDER, AVE of 3 repeats ([3]; Supplementary Fig. 3 b, Leu 100 μM): 0.9192
- fluorescence response of GECFINDER, AVE of 3 repeats ([3]; Supplementary Fig. 3 b, Leu 500 μM): 1.615
- fluorescence response of GECFINDER, AVE of 3 repeats ([3]; Supplementary Fig. 3 b, Leu 1000 μM): 1.882
- fluorescence response of GECFINDER, AVE of 3 repeats ([3]; Supplementary Fig. 3 b, Leu 5000 μM): 2.296
- fluorescence response of GECFINDER, AVE of 3 repeats ([3]; Supplementary Fig. 3 b, Leu 10000 μM): 2.333
- AVE of Repeat 1-3, sensor signal with ligand (Supplementary Fig. 7 c) [2]: 12093
- fluorescence response of GECFINDER to each substrate, AVE of 3 repeats [2]: -0.01092
